In patent publication US20070032477A1, “Pteridine derivatives useful for making pharmaceutical compositions” (priority 2003, published 2007):
Counter-ions that a name gives are not always drawn.

How the values were obtained:
[1] = system: production of TNF-α by PBMC in response to stimulation by LPS; test: TNF-α assay; assay type: cell-based, human; conditions: LPS 1 μg/ml, 72 hours, sandwich ELISA
Summary of the method: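 Cells were LPS-stimulated (1 μg/ml final) peripheral blood mononuclear cells at 10^6/ml, exposed 72 h at 37 °C to 0.1, 1 or 10 μM test compound.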

[2] = system: mixed lymphocyte reaction (PBMC with allogeneic PBMC or Eppstein-Barr Virus-transformed human B cells as stimulator cells); test: Mixed lymphocyte reaction (MLR) assay; assay type: cell-based; conditions: lowest concentration giving 50% suppression of the MLR; [3H]-thymidine
[3] = Plasma levels after oral administration in healthy mice; assay type: in vivo, C57BL/6 mice; conditions: 20 mg/kg once a day
Experimental: Each group of 6 mice received the indicated dose at time point 0 and were bled at 1, 3 and 5 hours after compound administration. Quantification was performed using a calibration curve of known compound concentrations spiked in control serum.
The plasma levels of the tested compound (example 176) was evaluated in C57BL/6 mice 8-10 weeks old Harlan, weighing 18.6-22.0 g after oral administration of 20, 10, 5 and 1 mg/kg, respectively (n=6 per dose). The tested compound (example 176) was dissolved in water to the appropriate concentration in order to deliver a constant gavage volume of 10 μl/g of body weight. Blood was collected by eye bleeding with heparinized capillaries at 1, 3, and 5 hours after dosing from each animal. The plasma fraction was immediately separated by centrifugation for 2 minutes at 12,000 g and stored at −80° C. until analysis. Each plasma sample was spiked with internal standard followed by the addition of 4 volumes of methanol. The samples were kept for 30 minutes on ice prior to centrifugation (10 minutes at 12,000 g) in order to remove precipitated proteins. The supernatant was analyzed for the presence of the tested compound (example 176), using LC/MS/MS. As standard for the bio-analysis, the tested compound (example 176) was diluted stepwise; each dilution was added to control plasma; additionally spiked with internal standard, giving rise to standard curves from 200 to 40,000 nM.

[4] = Mixed lymphocyte reaction (MLR) assay; assay type: cell-based, human; conditions: Homo sapiens, Lymphocyte; lowest concentration giving 50% suppression of the MLR; [3H]-thymidine
[5] = system: production of IL-1 β by PBMC in response to stimulation by LPS; test: IL-1 β assay; assay type: cell-based, human; conditions: LPS 1 μg/ml, 72 hours, sandwich ELISA
Experimental: Peripheral blood mononuclear cells (herein referred as PBMC), in response to stimulation by lipopolysaccharide (LPS), a gram-negative bacterial endotoxin, produce various […], in particular human IL-1 β. Inhibition of the activation of PBMC can therefore be measured by the level of suppression of the production of IL-1 β by PBMC in response to stimulation by LPS.
Such inhibition measurement was performed as follows: PBMC were isolated from heparinized peripheral blood by density gradient centrifugation over Lymphoprep (commercially available from Nycomed, Norway). LPS was then added to the PMBC suspension in complete medium (10^6 cells/ml) at a final concentration of 1 μg/ml. The pteridine derivative to be tested was added at different concentrations (0.1 μM, 1 μM and 10 μM) and the cells were incubated at 37° C. for 72 hours in 5% CO2. The supernatants were collected, then IL-1 β concentrations were measured with an anti-IL-1 β antibody in a sandwich ELISA. The calorimetric reading of the ELISA was measured by a Multiskan RC plate reader (commercially available from ThermoLabsystems, Finland) at 450 nm (reference wavelength: 690 nm). Data analysis was performed with Ascent software 2.6. (also from ThermoLabsystems, Finland): a standard curve (recombinant human IL-1 β) was drawn and the amount (pg/ml) of each sample on the standard curve was determined.
The % suppression of human IL-1 β by the pteridine derivatives (drugs) of this invention was calculated using the formula: [formula]

Structure (SMILES) | IC50 [1] | IC50 [2] | serum concentrations versus in vitro IC50 for IL-1β production or T cell activation [3] | IC50 [4] | IC50 [5] | IC50 ([1]; Homo sapiens)
CCCCCC(=O)N1CCN(c2nc(N)nc3ncc(-c4ccc(OC)c(OC)c4)nc23)CC1 [Example 10, 2-amino-4-[(N-hexanoyl)-piperazin-1-yl]-6-(3,4-dimethoxyphenyl)pteridine] | 0.07 µM | 0.1 µM | insufficient to inhibit IL-1β production or T cell activation | – | – | –
COc1ccc(-c2cnc3nc(NCc4cccs4)nc(N)c3n2)cc1OC [Example 80, 2-(2-thienylmethylamino)-4-amino-6-(3,4-dimethoxyphenyl)pteridine] | – | – | – | 4.7 µM | – | –
COc1ccc(-c2cnc3nc(NCc4ccccc4)nc(N)c3n2)cc1OC [Example 82, 2-benzylamino-4-amino-6-(3,4-dimethoxyphenyl)pteridine] | – | – | – | 3.2 µM | – | –
COc1ccc(-c2cnc3nc(N4CCCCC4)nc(N)c3n2)cc1OC [Example 87, 4-amino-2-piperidino-6-(3,4-dimethoxyphenyl)pteridine] | – | – | – | 8.4 µM | – | –
COc1ccc(-c2cnc3nc(N)nc(N4CCN(CC5CCCCC5)CC4)c3n2)cc1OC [Example 123] | 0.8 µM | 3.9 µM | – | – | 4.2 µM | –
COc1ccc(-c2cnc3nc(N)nc(N4CCC(C(=O)CN5CCNCC5)C4)c3n2)cc1OC (stereo not shown) [Example 131, 2-amino-4-(4-[2-(piperazin-1-yl)-acetyl]-pyrrolidino)-6-(3,4-dimethoxy-phenyl)pteridine] | – | – | – | 0.3 µM | – | 1.9 µM
COc1ccc(-c2cnc3nc(N)nc(N4CCN(CC(=O)N(C)c5ccccc5)CC4)c3n2)cc1OC [Example 132, 2-amino-4-(2-[piperazin-1-yl]-acetic acid N-methyl N-phenyl amide)-6-(3,4-dimethoxyphenyl)pteridine] | 0.05 µM | < 0.1 µM | – | – | 5.3 µM | –
COc1ccc(-c2cnc3nc(N)nc(N4CCN(Cc5cccc(C)c5)CC4)c3n2)cc1OC [Example 136, 2-amino-4-(1-(3-methyl-benzyl)piperazinyl)-6-(3,4-dimethoxyphenyl)pteridine] | 0.8 µM | 1.4 µM | – | – | 4.7 µM | –
COc1ccc(-c2cnc3nc(N)nc(N4CCN(c5ncccn5)CC4)c3n2)cc1OC [Example 147, 2-amino-4-((2-pyrimidinyl)-piperazin-1-yl)-6-(3,4-dimethoxyphenyl)pteridine] | 0.1 µM | 0.2 µM | – | – | 4.3 µM | –
COc1ccc(-c2cnc3nc(N)nc(N4CCN(CCCc5ccccc5)CC4)c3n2)cc1OC [Example 149] | 0.3 µM | 0.5 µM | – | – | 4.9 µM | –
COc1ccc(-c2cnc3nc(N)nc(N4CCN(c5ccc(Cl)c(Cl)c5)CC4)c3n2)cc1OC [Example 150, 2-amino-4-((3,4-dichlorophenyl)-piperazin-1-yl)-6-(3,4-dimethoxyphenyl)pteridine] | 0.3 µM | 1 µM | – | – | 3.5 µM | –
COc1ccc(-c2cnc3nc(N)nc(N4CCN(CCn5cccc5)CC4)c3n2)cc1OC [Example 153] | 0.1 µM | 0.2 µM | – | – | 2 µM | –
COc1ccc(-c2cnc3nc(N)nc(N4CCN(CCOc5ccccc5)CC4)c3n2)cc1OC [Example 154] | 0.03 µM | 0.1 µM | – | – | 2.2 µM | –
COc1ccc(-c2cnc3nc(N)nc(N4CCN(Cc5ccncc5)CC4)c3n2)cc1OC [Example 157] | 0.3 µM | 0.5 µM | – | – | 2.3 µM | –
COc1ccc(-c2cnc3nc(N)nc(N4CCN(CCc5ccccc5)CC4)c3n2)cc1OC [Example 159, 2-amino-4-(N-phenethylpiperazin-1-yl)-6-(3,4-dimethoxyphenyl)pteridine] | 0.02 µM | 0.11 µM | – | – | 5.4 µM | –
COc1ccc(N2CCN(c3nc(N)nc4ncc(-c5ccc(OC)c(OC)c5)nc34)CC2)cc1 [Example 161, 2-amino-4-((4-methoxyphenyl)-piperazin-1-yl)-6-(3,4-dimethoxyphenyl)pteridine] | 0.06 µM | 0.4 µM | – | – | 3.2 µM | –
COc1ccc(-c2cnc3nc(N)nc(N4CCN(c5ccc(Cl)cc5)CC4)c3n2)cc1OC [Example 162, 2-amino-4-((4-chlorophenyl)-piperazin-1-yl)-6-(3,4-dimethoxyphenyl)pteridine] | 0.4 µM | 0.8 µM | – | – | 3.8 µM | –
COc1ccc(-c2cnc3nc(N)nc(N4CCN(CCC5OCCO5)CC4)c3n2)cc1OC [Example 164, 2-amino-6-(3,4-dimethoxyphenyl)-4-(4-(2-(1,3)-dioxolan-2-yl-ethyl)-piperazin-1-yl)pteridine] | – | – | – | 2.3 µM | – | 0.2 µM
CCOCCN1CCN(c2nc(N)nc3ncc(-c4ccc(OC)c(OC)c4)nc23)CC1 [Example 165, 2-amino-6-(3,4-dimethoxyphenyl)-4-(4-(2-ethoxyethyl)-piperazin-1-yl)pteridine] | – | – | – | 2.9 µM | – | 0.3 µM
CCC(CC)N1CCN(c2nc(N)nc3ncc(-c4ccc(OC)c(OC)c4)nc23)CC1 [Example 166, 2-amino-6-(3,4-dimethoxyphenyl)-4-(pent-3-yl-piperazin-1-yl)pteridine] | 0.8 µM | 5.3 µM | – | – | 4.4 µM | –
CCCCCN1CCN(c2nc(N)nc3ncc(-c4ccc(OC)c(OC)c4)nc23)CC1 [Example 167, 2-amino-6-(3,4-dimethoxyphenyl)-4-(1-pentyl-piperazin-1-yl)pteridine] | 0.3 µM | 3.8 µM | – | – | 3.7 µM | –
COc1ccc(-c2cnc3nc(N)nc(N4CCN(c5ccc(F)cc5)CC4)c3n2)cc1OC [Example 172, 2-amino-6-(3,4-dimethoxyphenyl)-4-((4-fluorophenyl)-piperazin-1-yl)pteridine] | 0.05 µM | 0.1 µM | – | – | 5.1 µM | –
COc1ccc(-c2cnc3nc(N)nc(N4CCN(c5ccc(C)c(C)c5)CC4)c3n2)cc1OC [Example 174, 2-amino-6-(3,4-dimethoxyphenyl)-4-((3,4-dimethylphenyl)-piperazin-1-yl)pteridine] | 0.11 µM | 0.5 µM | – | – | 5 µM | –
COc1ccc(-c2cnc3nc(N)nc(N4CCN(c5nccs5)CC4)c3n2)cc1OC [Example 178] | 0.15 µM | 1.3 µM | – | – | 4 µM | –
CCCN(CCC)CCN1CCN(c2nc(N)nc3ncc(-c4ccc(OC)c(OC)c4)nc23)CC1 [Example 183, 2-amino-6-(3,4-dimethoxyphenyl)-4-(4-(2-dipropylaminoethyl)-piperazin-1-yl)pteridine trihydrochloride salt] | – | – | – | 8.2 µM | – | 1.2 µM
COc1ccc(-c2cnc3nc(N)nc(N4CCN(CCN5CCCCC5)CC4)c3n2)cc1OC [Example 184, 2-amino-6-(3,4-dimethoxyphenyl)-4-(4-(2-piperidin-1-yl-ethyl)-piperazin-1-yl)pteridine trihydrochloride salt] | – | – | – | 7.7 µM | – | 0.7 µM
COc1ccc(-c2cnc3nc(N)nc(N4CCN(CC(=O)Nc5nccs5)CC4)c3n2)cc1OC [Example 187, 2-amino-4-[2-(piperazin-1-yl)-acetic acid N-(2-thiazolyl)-amide]-6-(3,4-dimethoxyphenyl)pteridine] | 0.06 µM | 0.1 µM | – | – | 2.4 µM | –
